Laboratory results as given in ChEMBL document CHEMBL3580534, “Antibacterial Biphenanthrenes from the Fibrous Roots of Bletilla striata” (2015).
Converted amounts (≈) assume the structure as drawn.

How the values were obtained:
Type in all cases: functional
Staphylococcus aureus [1] = assay: Antimicrobial activity against Staphylococcus aureus ATCC 25923 assessed as complete prevention of visible growth after incubation at 37 degC for 18 to 20 hrs
Staphylococcus aureus [2] = assay: Antimicrobial activity against ampicillin-resistant Staphylococcus aureus ATCC 29213 assessed as complete prevention of visible growth after incubation at 37 degC for 18 to 20 hrs
Staphylococcus aureus [3] = assay: Antimicrobial activity against methicillin-resistant Staphylococcus aureus ATCC 43300 assessed as complete prevention of visible growth after incubation at 37 degC for 18 to 20 hrs
[4] = test system: Staphylococcus epidermidis; assay: Antimicrobial activity against Staphylococcus epidermidis CMCC 26069 assessed as complete prevention of visible growth after incubation at 37 degC for 18 to 20 hrs
Enterococcus faecalis = assay: Antimicrobial activity against Enterococcus faecalis ATCC 29212 assessed as complete prevention of visible growth after incubation at 37 degC for 18 to 20 hrs
Bacillus subtilis = assay: Antimicrobial activity against Bacillus subtilis CGMCC 1.1470 assessed as complete prevention of visible growth after incubation at 37 degC for 18 to 20 hrs
Escherichia coli = assay: Antimicrobial activity against Escherichia coli ATCC 35218 assessed as complete prevention of visible growth after incubation at 37 degC for 18 to 20 hrs
Proteus vulgaris = assay: Antimicrobial activity against Proteus vulgaris CMCC 49027 assessed as complete prevention of visible growth after incubation at 37 degC for 18 to 20 hrs

Row | SMILES | MIC (Staphylococcus aureus [1]) [µg/mL] | MIC (Staphylococcus aureus [2]) [µg/mL] | MIC (Staphylococcus aureus [3]) [µg/mL] | MIC [4] [µg/mL] | MIC (Enterococcus faecalis) [µg/mL] | MIC (Bacillus subtilis) [µg/mL] | MIC (Escherichia coli) [µg/mL] | MIC (Proteus vulgaris) [µg/mL]
1 | COc1ccc2c(ccc3c(-c4cc5c(cc4OC)-c4c(cc(O)cc4OC)CC5)c(O)cc(OC)c32)c1 | > 128 | > 128 | > 128 | > 128 | > 128 | > 128 | > 128 | > 128
2 | COc1cc(O)c2c(c1)CCc1cc(O)c(-c3c(O)cc(OC)c4c3ccc3cc(OC)ccc34)cc1-2 | 8 (≈ 16.2 µM) | 8 (≈ 16.2 µM) | 8 (≈ 16.2 µM) | 8 (≈ 16.2 µM) | 64 (≈ 129 µM) | 16 (≈ 32.4 µM) | > 128 | > 128
3 | COc1ccc2c(ccc3c(-c4c(O)cc(OC)c5c4CCc4cc(O)ccc4-5)c(O)cc(OC)c32)c1 | 4 (≈ 8.09 µM) | 2 (≈ 4.04 µM) | 4 (≈ 8.09 µM) | 4 (≈ 8.09 µM) | 4 (≈ 8.09 µM) | 4 (≈ 8.09 µM) | > 128 | > 128
4 | COc1c(O)ccc2c1ccc1c(-c3c(O)cc(OC)c4c3ccc3c(OC)c(O)ccc34)c(O)cc(OC)c12 | 16 (≈ 29.7 µM) | 8 (≈ 14.9 µM) | 16 (≈ 29.7 µM) | 8 (≈ 14.9 µM) | 64 (≈ 119 µM) | 8 (≈ 14.9 µM) | > 128 | > 128
5 | CC1(C)S[C@@H]2[C@H](NC(=O)[C@H](N)c3ccccc3)C(=O)N2[C@H]1C(=O)O [AMPICILLIN] | 0.125 (≈ 0.358 µM) | 8 (≈ 22.9 µM) | > 8 | 8 (≈ 22.9 µM) | 4 (≈ 11.4 µM) | > 8 | > 8 | > 8
6 | COc1cc(O)c(-c2c(O)cc(OC)c3c2ccc2cc(O)ccc23)c2ccc3cc(O)ccc3c12 [CIRRHOPETALANTHIN] | 32 (≈ 66.9 µM) | 16 (≈ 33.4 µM) | 16 (≈ 33.4 µM) | 16 (≈ 33.4 µM) | 16 (≈ 33.4 µM) | 8 (≈ 16.7 µM) | > 128 | > 128
